For eleven compounds, IC50 and side effects results are on record in patent US5708013A, “Pyridine derivative and therapeutic agent for ulcer comprising the same” (priority 1987, dated 1998).

Series [1] concerns the target T1, H^+ --K^+ ATPase (Sus scrofa, UniProt P19156).
T1 construct: prepared from a gland portion of the gastric fundus of the gastiric mucosa of a fresh pig; from tissue; host or cells: gland portion of the gastric fundus mucosa, fresh pig
Put plainly: H+-K+ ATPase activity inhibition. In kind it is biochemical. As to conditions: pig gastric fundus gland H+-K+ ATPase; pH 7.40, 37° C., 30 min incubation; compound dissolved in methanol; read-out: inhibitory effect on H+-K+ ATPase activity, IC50. The procedure: H^+ --K^+ ATPase activity inhibition
(1) Preparation of H^+ --K^+ ATPase:
H^+ --K^+ ATPase was prepared from a gland portion of the gastric fundus of the gastiric mucosa of a fresh pig by the modification of a method of Saccomani et al., Biochem. and Biophys.
(2) Determination of H^+ --K^+ ATPase activity:
The compound of the present invention was incubated in various concentrations together with H^+ --K^+ ATPase and 10 μg/ml of protein in 40 mM of Tris-HCl having a pH value of 7.40 at 37° C. for 30 min. 15 mM of KCl was added thereto. 10 min after the addition, an ATPase reaction was initiated by addition of 3 mM of MgCl2 and ATP. 10 min after the initiation of the reaction, the amount of the released inorganic phosphoric acid was measured according to the method of Yoda and Hokin, Biochem. Biophys.
The test compound was dissolved in methanol prior to use.
The inhibitory effect was determined as follows. The measured value of the test compound was subtracted from the measured value of the control group to determine the difference in the measured values therebetween. The inhibitory effect was calculated as the percentage of the difference relative to the measured value of the control group. In the Table, the inhibitory effect was expressed in terms of IC50.

For series [2] the following is noted: reported, prior art; cited from earlier work.

SMILES strings stand for the structures.

T1 sequence (P19156 2-1034 limits assumed): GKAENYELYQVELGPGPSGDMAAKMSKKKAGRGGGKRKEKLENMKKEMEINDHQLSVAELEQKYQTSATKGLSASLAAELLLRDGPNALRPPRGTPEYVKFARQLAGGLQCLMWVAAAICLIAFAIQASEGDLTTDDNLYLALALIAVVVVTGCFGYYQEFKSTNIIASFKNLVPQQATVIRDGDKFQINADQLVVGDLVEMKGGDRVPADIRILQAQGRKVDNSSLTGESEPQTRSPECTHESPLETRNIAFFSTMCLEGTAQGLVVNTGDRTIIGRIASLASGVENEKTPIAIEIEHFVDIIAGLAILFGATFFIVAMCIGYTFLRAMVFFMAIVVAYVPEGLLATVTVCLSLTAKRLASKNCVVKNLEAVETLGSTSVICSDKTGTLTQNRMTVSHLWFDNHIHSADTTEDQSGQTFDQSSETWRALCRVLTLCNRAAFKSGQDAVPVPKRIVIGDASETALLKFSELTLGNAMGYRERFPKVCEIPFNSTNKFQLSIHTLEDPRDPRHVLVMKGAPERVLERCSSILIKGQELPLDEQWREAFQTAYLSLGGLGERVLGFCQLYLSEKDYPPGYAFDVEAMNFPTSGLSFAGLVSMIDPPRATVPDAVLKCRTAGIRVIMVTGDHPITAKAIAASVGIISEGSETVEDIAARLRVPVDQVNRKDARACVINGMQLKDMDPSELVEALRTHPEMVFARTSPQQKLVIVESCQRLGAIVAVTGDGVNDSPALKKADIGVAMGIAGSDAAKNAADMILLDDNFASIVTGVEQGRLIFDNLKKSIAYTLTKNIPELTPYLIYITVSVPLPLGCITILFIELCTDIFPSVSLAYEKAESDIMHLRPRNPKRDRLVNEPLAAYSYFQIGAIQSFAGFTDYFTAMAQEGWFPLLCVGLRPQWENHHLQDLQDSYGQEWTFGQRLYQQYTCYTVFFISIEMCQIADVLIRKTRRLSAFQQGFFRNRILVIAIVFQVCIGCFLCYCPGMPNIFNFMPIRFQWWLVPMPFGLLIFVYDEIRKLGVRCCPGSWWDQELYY
T1 sequence (P18434 whole entry partner): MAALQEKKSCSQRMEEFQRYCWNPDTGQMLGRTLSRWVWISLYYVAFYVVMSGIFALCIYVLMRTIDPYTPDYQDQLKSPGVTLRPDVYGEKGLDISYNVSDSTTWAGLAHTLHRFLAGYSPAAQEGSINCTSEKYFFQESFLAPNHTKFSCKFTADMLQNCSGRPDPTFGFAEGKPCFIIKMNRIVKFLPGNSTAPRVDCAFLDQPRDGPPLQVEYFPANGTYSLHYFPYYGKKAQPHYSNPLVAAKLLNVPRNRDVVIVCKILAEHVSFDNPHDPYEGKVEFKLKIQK

Take `CCOCCOc1ccnc(C[S+]([O-])c2nc3ccccc3[nH]2)c1C` (centres unmarked) [No. 6]: the IC50 (as a rule, the point on the concentration scale where inhibition reaches its midpoint) in series [1] is 2800 nM. The same measure, in the same setting: the result for `CCCCOCCOc1ccnc(C[S+]([O-])c2nc3cc(C)c(C)cc3[nH]2)c1C` (centres unmarked) [No. 4] reads 2200 nM; that for `COCCOc1ccnc(C[S+]([O-])c2nc3ccccc3[nH]2)c1C` (centres unmarked) [No. 10], 3300 nM. Same read-out and setting: the result for `CCCCOCCOc1ccnc(C[S+]([O-])c2nc3cc(C(F)(F)F)ccc3[nH]2)c1C` (centres unmarked) [No. 3] reads 1100 nM. Same read-out and setting: the result for `CCCCOCCOc1ccnc(C[S+]([O-])c2nc3cc(OC)ccc3[nH]2)c1C` (centres unmarked) [No. 5] reads 3000 nM; that for `COCCOc1ccnc(C[S+]([O-])c2nc3cc(C(F)(F)F)ccc3[nH]2)c1C` (centres unmarked) [No. 11], 1700 nM; that for `CCOCCOc1ccnc(C[S+]([O-])c2nc3cc(OC)ccc3[nH]2)c1C` (centres unmarked) [No. 9], 3400 nM. For `COCCOc1ccnc(C[S+]([O-])c2nc3cc(OC)ccc3[nH]2)c1C` (centres unmarked) [No. 12], the IC50 in series [1] stood at 5600 nM. Same read-out and setting: then `CCCCOCCOc1ccnc(C[S+]([O-])c2nc3cc(Cl)ccc3[nH]2)c1C` (centres unmarked) [No. 2], with 1800 nM; and `CCCCOCCOc1ccnc(C[S+]([O-])c2nc3ccccc3[nH]2)c1C` (centres unmarked), with 1800 nM. With `CN/C(=N/CCSCc1nc[nH]c1C)NC#N` [cimetidine], the side effects entry in series [2] is given as “antiandrogenic action or a metabolic enzymatic activity inhibitory action upon liver”.
